The text below walks through data of patent publication US8030547B2, “Gene coding for acetolactate synthase” (priority 2002, dated 2011).

Experiment [1] concerns mutant ALS protein of Sr line. In words: Herbicide sensitivity of partially purified ALS protein (ALS activity inhibition), Sr line. Particulars: I50 of the resistant mutant divided by I50 of the wild type. Format: biochemical, Oryza sativa var. Kinmaze. As to the method:
(§1) First, 200 g or more of resistant mutant was prepared by a liquid culture method (no supplementation with bispyribac-sodium), using a composition as shown in Table 3 excluding Gelrite. Then, about 150 g of the resistant mutant was homogenized using Hiscotron in a volume of buffer-1 [100 mM potassium phosphate buffer (pH 7.5) containing 20% (v/v) glycerol, […] thiamin pyrophosphate (TPP), 10 μM flavin adenine dinucleotide (FAD), 0.5 mM MgCl2, and a volume of polyvinyl polypyrrolidone one-tenth that of tissue volume] 3-fold greater than tissue volume. The homogenate was filtered through nylon gauze, and then centrifuged at 15000×g for 20 minutes. Ammonium sulfate was added to the centrifuged supernatant to 50% saturation, and then allowed to stand in ice for approximately 1 hour. The mixture was again centrifuged at 15000×g for 20 minutes, and then the precipitated fraction was dissolved in approximately 30 ml of buffer-2 [10 mM Tris hydrochloric acid buffer (pH 7.5) containing 20% (v/v) glycerol, 0.5 mM TPP and 0.5 mM MgCl2]. The mixture was again centrifuged at 15000×g for 20 minutes, and then the supernatant fraction was applied to a Sephadex G-25 (Amersham Bioscience). About 40 ml of the fraction that had passed through the column was collected as a crude enzyme solution.
(§2) Next, the protein concentration of the crude enzyme solution was measured by the Bradford method according to the manual of Bio-Rad Protein Assay. The crude enzyme solution was then filtered through a Whatman filter (Whatman), and then the crude enzyme solution in an appropriate protein amount (10 to 15 ml) was applied to three vertically-connected HiTrap Q columns (Amersham Bioscience) using a FPLC device (Amersham Bioscience). After protein component was adsorbed using HiTrap Q, unadsorbed fractions were washed out using buffer-2 having a volume 3 to 5 fold greater than the bed volume. Then, the adsorbed protein component was eluted using an eluate having a volume 10 fold greater than the bed volume (150 ml). Here, the eluate was prepared by dissolving KCl with a linear concentration gradient (0 to 0.4 M) into buffer-2. The eluate containing the eluted protein component was apportioned, 5 ml each, into a plurality of test tubes for apportioning. Further, to stabilize ALS protein contained in the eluted protein component, 0.5 ml of buffer-2 containing 20 mM sodium pyruvate had been previously added to each test tube for apportioning.
(§3) ALS activity resulting from the mutant ALS protein contained in the eluted fractions apportioned into each test tube for apportioning was measured as follows. A reaction solution to be used in a measurement reaction was prepared by mixing an eluted fraction to be measured with a solution comprising 20 mM sodium pyruvate, 0.5 mM TPP, 0.5 mM MgCl2, 10 μM FAD and 20 mM potassium phosphate buffer (pH 7.5). One ml of this reaction solution was used. After the eluted fraction to be measured was added, the measurement reaction was performed at 30° C. for 40 to 60 minutes. Then, the reaction was stopped by addition of 0.1 ml of 6N sulfuric acid (or 0.25 N sodium hydroxide).
(§4) After the reaction was stopped, the reaction solution was incubated at 60° C. for 10 minutes, thereby converting acetolactate contained in the reaction solution to acetoin.
(§5) Then, to quantify acetoin contained in the reaction solution, 1 ml of 0.5% (w/v) creatine and 1 ml of 5% (w/v) α-naphthol dissolved in 2.5 N sodium hydroxide was added to the reaction solution, followed by incubation at 37° C. for 10 minutes. Acetoin was then quantified by color comparison of the absorbance (at 525 nm) of the reaction solution, thereby evaluating ALS activity. In addition, since the reaction solution contained a small amount of sodium pyruvate, reaction time 0 was used as control.
(§6) Using the enzyme solution containing the mutant ALS protein, sensitivity of the mutant ALS protein to bispyribac-sodium, chlorsulfuron and imazaquin was examined. […]

Experiment [2] addresses T1, mutant ALS protein of Sr line (Oryza sativa subsp. japonica, UniProt Q6K2E8).
T1 construct: other: partially purified ALS, 30° C., probit analysis
Described as above. It counts as biochemical, Oryza sativa var. Kinmaze. Particulars: read-out: I50 (nM) Sr; partially purified ALS, 30° C., probit analysis. As to the method: as §1, §2, §3, §4, §5, §6

Experiment [3] addresses T2, GST fusion P171H/S627I mutant ALS protein (Oryza sativa subsp. japonica, UniProt Q6K2E8, P171H/S627I).
T2 construct: made in house; host or cells: E. coli, pGEX-2T(ALS-P171H, S627I mutant); crude supernatant
In words: Herbicide sensitivity of ALS protein expressed in E. coli (crude enzyme solution), P171H/S627I. It counts as biochemical, rice (Oryza sativa var. Kinmaze). The following applies: for RS ratio/ predicted RS ratio / Predicted RS ratio: P171H/S627I mutant; for RS ratio: P171H/S627I mutant vs wild type; for Predicted RS ratio: product of RS ratios of the 1-point mutants. The procedure:
as §3, §4, §5
E. coli transformed with pGEX-2T(ALS-wild) constructed in Example 3(5), E. coli transformed with pGEX-2T(ALS-W548L mutant) constructed in Example 5, E. coli transformed with pGEX-2T(ALS-S627I mutant) constructed in Example 5, E. coli transformed with pGEX-2T(ALS P171H mutant) constructed in Example 6, E. coli transformed with pGEX-2T(ALS R172S mutant) constructed in Example 6, E. coli transformed with pGEX-2T(ALS P171H, R172S mutant) constructed in Example 7, E. coli transformed with pGEX-2T(ALS-P171H, W548L mutant) constructed in Example 8, E. coli transformed with pGEX-2T(ALS-P171H, S627I mutant) constructed in Example 8, and E. coli transformed with pGEX-2T(ALS-P171H, W548L, S627I mutant) constructed in Example 9 were respectively shake-cultured (pre-culture) at 27° C. in 2 ml of LB liquid medium containing ampicillin. These types of E. coli were respectively cultured in 250 ml of LB liquid medium containing ampicillin using 1 ml of the pre-culture solution. After culturing overnight, 1 mM IPTG was added to the media, and then culturing was performed for a further 3 to 4 hours, so that the expression of GST fusion protein was induced. In addition, the cells were stored at −80° C. after washing.
Preparation and purification of ALS from E. coli were performed by the following method. First, the pellet of the transformant E. coli stored at −80° C. was suspended in ALS extraction buffer (potassium phosphate buffer (pH 7.5) containing 30% glycerol and 0.5 mM MgCl2). Specifically, 2.5 ml of the buffer was added to the pellet obtained from 50 ml of the culture solution. The suspension was subjected to ultrasonication (Heat Systems-Ultrasonics, Sonicator W-225R, micro chip, output control 8, interval of approximately 1 second, twice (40 seconds each)), and subjected to centrifugation at 15000×g, 4° C. for 20 minutes, thereby obtaining the supernatant as a crude enzyme solution.
Herbicide sensitivity of the wild type ALS protein and that of mutant ALS protein were examined using the 9 types of crude enzyme solutions obtained in Example 10. Herbicide sensitivity test was performed according to procedures almost the same as those in Example 2. However, in this example, reaction temperature was 37° C., reaction time was 30 minutes, and 10 mM valine was added to the reaction solution to inhibit ALS activity derived from E. coli. Further, three types of herbicides, bispyribac-sodium, pyrithiobac-sodium, and pyriminobac, were used as PC herbicides; chlorsulfuron was used as a sulfonylurea herbicide; and imazaquin was used as an imidazolinon herbicide. […]

Structures are written as SMILES.

T1 sequence (Q6K2E8 whole entry W548L/S627I, form open): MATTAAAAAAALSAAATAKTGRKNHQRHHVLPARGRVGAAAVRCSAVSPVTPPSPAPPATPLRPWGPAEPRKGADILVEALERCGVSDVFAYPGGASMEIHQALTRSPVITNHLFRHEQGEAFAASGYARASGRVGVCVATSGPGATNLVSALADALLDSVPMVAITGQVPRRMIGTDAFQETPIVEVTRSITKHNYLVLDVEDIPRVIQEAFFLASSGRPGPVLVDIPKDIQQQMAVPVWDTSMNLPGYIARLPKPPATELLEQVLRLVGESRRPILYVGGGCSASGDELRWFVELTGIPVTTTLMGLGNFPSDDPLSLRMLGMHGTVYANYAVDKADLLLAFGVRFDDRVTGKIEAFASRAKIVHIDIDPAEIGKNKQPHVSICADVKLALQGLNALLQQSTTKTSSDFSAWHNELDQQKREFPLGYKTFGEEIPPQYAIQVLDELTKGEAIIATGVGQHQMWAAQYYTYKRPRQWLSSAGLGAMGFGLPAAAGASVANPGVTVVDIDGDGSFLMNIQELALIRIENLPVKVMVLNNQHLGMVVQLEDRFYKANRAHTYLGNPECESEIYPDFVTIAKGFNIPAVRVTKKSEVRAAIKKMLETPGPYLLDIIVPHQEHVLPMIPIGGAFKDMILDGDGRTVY
T2 sequence (Q6K2E8 44-644 P171H/S627I): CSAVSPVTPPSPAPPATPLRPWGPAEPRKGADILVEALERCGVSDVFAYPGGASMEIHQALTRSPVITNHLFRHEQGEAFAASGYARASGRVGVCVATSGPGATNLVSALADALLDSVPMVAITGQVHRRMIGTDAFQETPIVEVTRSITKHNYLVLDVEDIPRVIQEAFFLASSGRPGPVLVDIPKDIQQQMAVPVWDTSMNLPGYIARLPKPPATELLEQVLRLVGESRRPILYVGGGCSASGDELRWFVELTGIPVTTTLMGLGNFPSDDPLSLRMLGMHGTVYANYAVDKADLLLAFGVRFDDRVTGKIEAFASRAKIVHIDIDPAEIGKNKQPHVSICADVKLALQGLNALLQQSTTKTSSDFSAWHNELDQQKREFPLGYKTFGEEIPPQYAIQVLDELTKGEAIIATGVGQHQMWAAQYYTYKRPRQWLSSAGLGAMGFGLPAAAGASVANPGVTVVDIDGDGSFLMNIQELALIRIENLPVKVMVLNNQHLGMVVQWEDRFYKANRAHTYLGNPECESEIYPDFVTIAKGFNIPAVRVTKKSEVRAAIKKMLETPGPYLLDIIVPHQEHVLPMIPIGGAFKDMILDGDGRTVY

`COc1cc(OC)nc(Oc2cccc(Oc3nc(OC)cc(OC)n3)c2C(=O)O)n1` [bispyribac-sodium]: the “RS ratio Sr” value in experiment [1] is recorded as 74.8. Moreover, the IC50 in experiment [2] was determined as 421 nM. Also, in experiment [3], the IC50 was found to be 23 µM, the “RS ratio/ predicted RS ratio” value is 10, the RS ratio was 3700 and the “Predicted RS ratio” value was 360.

In the case of `COc1nc(C)nc(NC(=O)NS(=O)(=O)c2ccccc2Cl)n1` [chlorsulfuron], the “RS ratio Sr” value in experiment [1] was 5.36. Further, the IC50 in experiment [2] was found to be 92.8 nM. In addition, in experiment [3], the IC50 turned out to be 9.9 µM, the “RS ratio/ predicted RS ratio” value was 3.8, the RS ratio was determined as 760 and the “Predicted RS ratio” value was 200.

As to `CC(C)C1(C)N=C(c2nc3ccccc3cc2C(=O)O)NC1=O` (stereo not drawn) [imazaquin], the “RS ratio Sr” value in experiment [1] is 11.3. In addition, the IC50 in experiment [2] was 16700 nM. Moreover, in experiment [3], the IC50 came out at 71 µM, the “RS ratio/ predicted RS ratio” value is reported as 3.2, the RS ratio worked out at 32 and the “Predicted RS ratio” value is given as 10.
